The values below are quoted from earlier work in patent US20230066947A1, “Method for the augmentation of substance abuse therapies using cannabinoid formulations” (priority 2021, published 2023).

The bioavailability is the share of a dose that reaches the circulation, judged against a reference dose that is usually intravenous.

Where two headings read alike, the source gives them in different places.

In one series the target is T1, COX-2 (Homo sapiens, UniProt P35354).
T1 sequence (P35354 18-604): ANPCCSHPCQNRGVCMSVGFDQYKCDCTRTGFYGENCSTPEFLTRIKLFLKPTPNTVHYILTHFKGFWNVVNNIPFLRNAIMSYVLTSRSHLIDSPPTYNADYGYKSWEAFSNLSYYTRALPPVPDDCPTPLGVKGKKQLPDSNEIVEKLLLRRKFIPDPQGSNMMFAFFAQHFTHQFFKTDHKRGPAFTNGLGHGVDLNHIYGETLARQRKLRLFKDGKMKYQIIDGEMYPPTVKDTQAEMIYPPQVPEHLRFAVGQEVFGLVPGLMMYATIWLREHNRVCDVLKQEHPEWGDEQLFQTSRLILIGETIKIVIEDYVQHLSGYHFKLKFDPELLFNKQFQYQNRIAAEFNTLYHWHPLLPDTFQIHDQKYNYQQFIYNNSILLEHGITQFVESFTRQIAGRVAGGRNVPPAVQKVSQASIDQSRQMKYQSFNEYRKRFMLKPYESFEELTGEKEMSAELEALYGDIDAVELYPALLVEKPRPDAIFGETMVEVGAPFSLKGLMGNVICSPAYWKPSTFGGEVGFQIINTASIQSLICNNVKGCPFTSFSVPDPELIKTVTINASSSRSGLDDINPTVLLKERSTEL
To be noted: compared with common NSAIDS.

Series [1] has as its system specific serotonin receptor linked to anti-nausea and anti-anxiety effects.

For `C=C(C)[C@@H]1CCC(C)=C[C@H]1c1c(O)cc(CCCCC)c(C(=O)O)c1O` [CBDA], on COX-2, the COX-2 inhibitor behavior result was “same COX-2 inhibitor behavior”. In addition, the “affinity to bind to a specific serotonin receptor” value in series [1] is recorded as “far greater affinity”. The bioavailability (intraperitoneal administration) is reported as 80% and the bioavailability result (orally ingested) is “approximately 20%”.
